Source: patent US20110003760A1, “ABNORMAL PROTEIN REMOVING METHOD” (priority 2005, published 2011)

Tests used:
[1] = tested on: carbonylated protein in three-dimensional human skin model TESTSKIN (LSE-high); assay: Carbonylated protein in three-dimensional human skin model, Western blotting (DNPH); assay type: cell-based; settings: for Relative photographic density (carbonylated protein): untreated without UV = 100%
Method: (§1) Three-dimensional human skin models are widely used in safety evaluation and effectiveness evaluation as a simulated model of human skin. In this test, TESTSKIN (LSE-high) (Toyobo Co., Ltd.) was used as a three-dimensional human skin model.
(§2) A culture medium was added to the outer well of TESTSKIN (LSE-high) and cultured for 24 hours. UVA and UVB were irradiated at 10 J/cm^2 and 100 mJ/cm^2, respectively. UVB was irradiated for 2 minutes at a UV intensity of […] using FL20S-E-30/DMR (Clinical Supply Co., Ltd.) to achieve a total irradiation dose of 100 mJ/cm^2. UV intensity was measured using a UV MONITOR MS-211-I (Eiko Instruments Co., Ltd.).
As a control group, three-dimensional human skin models not irradiated with UVA or UVB were also prepared.
Thereafter, the culture solution was changed and each agent was added by 100 μl onto the tissues in the assay ring, after which the medium was cultured for 36 hours. Thereafter, the tissues were collected and a tissue extraction solution (50 mM Tris-HCl (pH 7.5), 0.5% (Octylphenoxy) polyethoxyethanol (Sigma-Aldrich Corp.)) was added, and then the mixture was homogenized using a Teflon (registered trademark) homogenizer. The homogenized mixture was centrifuged for 30 minutes at 10,000×G to remove tissue fragments, and then dialyzed overnight in distilled water at 4° C. Thereafter, the dialyzed mixture was freeze-dried to remove water. A tissue extraction solution was added to obtain a ×20 concentrate, and this concentrate was used as a three-dimensional skin model extract sample.
In this test, 2,4-dinitrophenyl hydrazine (DNPH), which specifically bonds with the carbonyl group in the protein produced by oxidation damage, was used to label carbonylated protein, and then detection was performed using an anti-DNPH antibody that specifically bonds with DNPH.
The specific method is explained below. DNPH protein was detected from the protein in the sample by means of Western blotting using a DNPH kit (Oxi Blot™ Protein Oxidation Detection Kit; Chemicon International Inc.). Detection was performed by exposing PVDF membranes to light using a […] (ECL PLUS; Amarsham PLC), and an automatic developer (FPM100; FUJIFILM Medical Co., Ltd.) was used to transfer images. A densitometer (Molecular Dynamics Inc.) was then used to analyze the images to quantify the photographic density. For your information, protein in the sample was reduced and measured as deemed appropriate. In this case, 2-mercaptoethanol was used as a reducing agent and the mixture was heated for 5 minutes at 100° C. to sever the disulfide bond.
Based on the above results, it is clear that Bletilla striata extract and silybin suppress accumulation of carbonylated protein in a three-dimensional skin model in a manner dependent on the concentration. Accordingly, whether or not a combined use of Bletilla striata extract and silybin would synergistically suppress accumulation of carbonylated protein was evaluated. Also, whether or not a combined use of silybin and soybean saponin, a substance known to have an action to suppress accumulation of carbonylated protein, would synergistically suppress accumulation of carbonylated protein was evaluated. As a result, regardless of whether or not UV light was irradiated using silybin (3 μM) in combination with Bletilla striata extract (0.1%; final extract concentration of 0.001%), or using silybin (3 μM) in combination with soybean saponin (0.0005%), suppressed the accumulation of carbonylated protein synergistically compared to when a sample was treated with silybin (3 μM), Bletilla striata extract (0.1%; final extract concentration of 0.001%) or soybean saponin (0.0005%) alone, as far as accumulation of carbonylated protein in a three-dimensional skin model was concerned (FIG. 7 and Table 7; results of non-reduced protein).

[2] = tested on: carbonylated type I collagen in three-dimensional human skin model; assay: Carbonylated collagen in three-dimensional human skin model, type I collagen immunoprecipitation and Western blotting; assay type: cell-based; settings: silybin 3 μM, Bletilla striata extract 0.1%, soybean saponin 0.0005%, alone or combined; for Relative photographic density (carbonylated collagen): Table 8, non-reduced protein, untreated without UV = 100%
Method: as §1, §2
Thereafter, the culture solution was changed and each agent was added by 100 μl onto the tissues in the assay ring, after which the medium was cultured for 36 hours. […]
Using the protein derived from the three-dimensional human skin model extract treated with each agent, type I collagen was immunoprecipitated by means of a known method (Mizushima, et al., Jpn. J. Cancer Res. Vol. 93, pp. 652-659, 2002). […] The immunoprecipitate was washed three times using a STEN buffer solution, after which 50 μl of a SDS-PAGE sample buffer solution was added and the amount of carbonylated protein and amount of type I collagen were measured by means of Western blotting.
From the results shown in FIG. 7 and Table 7, it is clear that using silybin in combination with Bletilla striata extract, or using silybin in combination with soybean saponin, synergistically suppresses carbonylated protein. Next, whether or not carbonylation of type I collagen would be suppressed by using silybin in combination with Bletilla striata extract, or using silybin in combination with soybean saponin, was evaluated to check the possibility of using such combinations to remove oxidized collagen that accumulates with age to cause lines, sagging, dull complexion and other signs of aging skin. […]

[3] = tested on: three-dimensional human skin model; assay: Cell toxicity at treatment concentrations in three-dimensional human skin model; settings: at 3 and 10 μM

Structure (SMILES): COc1cc(C2Oc3cc([C@H]4Oc5cc(O)cc(O)c5C(=O)[C@@H]4O)ccc3OC2CO)ccc1O (some centres unmarked) [Silybin, silybin]
- Relative photographic density (carbonylated protein) ([1]; Table 7, non-reduced protein, head printed UV (−), silybin 3 μM, Bletilla striata extract 0.1%, soybean saponin 0.0005%, alone or combined): 300%
- Relative photographic density (carbonylated protein) ([1]; Table 7, non-reduced protein, first column UV (−), silybin 3 μM, Bletilla striata extract 0.1%, soybean saponin 0.0005%, alone or combined): 60%
- amount of carbonylated protein compared to the sample not given any treatment under UV irradiation ([1]; non-reduced protein, 3 μM): 30%
- amount of carbonylated protein compared to the sample not given any treatment under UV irradiation ([1]; non-reduced protein, 10 μM): 9%
- amount of carbonylated protein compared to the sample not given any treatment under UV irradiation ([1]; non-reduced protein, silybin 3 μM, Bletilla striata extract 0.1%, soybean saponin 0.0005%, alone or combined): 60%
- Relative photographic density (carbonylated protein) ([1]; non-reduced protein, treatment concentration 3 μM, UV (+)): 95%
- Relative photographic density (carbonylated protein) ([1]; non-reduced protein, treatment concentration 3 μM, UV (−)): 55%
- Relative photographic density (carbonylated protein) ([1]; non-reduced protein, treatment concentration 10 μM, UV (+)): 30%
- Relative photographic density (carbonylated protein) ([1]; non-reduced protein, treatment concentration 10 μM, UV (−)): 8%
- amount of carbonylated protein compared to the sample not given any treatment under UV irradiation ([1]; reduced protein, 3 μM): 25%
- amount of carbonylated protein compared to the sample not given any treatment under UV irradiation ([1]; reduced protein, 10 μM): 10%
- Relative photographic density (carbonylated protein) ([1]; reduced protein, treatment concentration 3 μM, UV (+)): 85%
- Relative photographic density (carbonylated protein) ([1]; reduced protein, treatment concentration 3 μM, UV (−)): 50%
- Relative photographic density (carbonylated protein) ([1]; reduced protein, treatment concentration 10 μM, UV (+)): 35%
- Relative photographic density (carbonylated protein) ([1]; reduced protein, treatment concentration 10 μM, UV (−)): 5%
- Relative photographic density (carbonylated protein) ([1]; reduced protein, treatment concentration 10 μM, UV (−), listed as silybin): 10%
- Relative photographic density (carbonylated collagen) ([2]; head printed UV (−)): 430%
- Relative photographic density (carbonylated collagen) ([2]; first column UV (−)): 72%
- amount of carbonylated collagen compared to the sample not given any treatment under UV irradiation ([2]; non-reduced protein, UV irradiation): 72%
- cell toxicity [3]: does not occur
